The target of this assay is T1, RORγ ligand-binding domain (Homo sapiens, UniProt P51449).
T1 construct: Gal4 (galactose-responsive transcription factor); expressed in transfected cells; host or cells: HEK293, transient co-transfection
T1 sequence (P51449 269-508 limits assumed): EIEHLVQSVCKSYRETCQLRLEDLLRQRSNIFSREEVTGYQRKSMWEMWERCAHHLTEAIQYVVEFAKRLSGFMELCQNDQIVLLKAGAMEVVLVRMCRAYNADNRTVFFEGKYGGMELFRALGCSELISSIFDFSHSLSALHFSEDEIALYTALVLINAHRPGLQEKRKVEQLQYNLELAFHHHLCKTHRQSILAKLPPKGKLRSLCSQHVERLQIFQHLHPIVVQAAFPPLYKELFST
Briefly: RORγ Reporter Assay (Gal4). It counts as cell-based. The protocol: The HEK293 cell line is co-transfected transiently with two plasmids, one with the RORγ ligand-binding domain fused to galactose-responsive transcription factor (Ga14), and the other with the luciferase reporter gene and Gal binding sites (UAS). This construction allows to determine the RORT activity in a cellular system through the measurement of luminescence.
A suspension of RORγ reporter cells was dispensed into plates and cultured 2 h at 37° C. and 5% CO2. Media formulation consisted in DMEM/F-12 medium (Gibco) supplemented with 10% heat inactivated FBS (Sigma-Aldrich), non-essential aminoacids (Sigma-Aldrich), 2 mM Glutamax (Gibco) and 100 U/mL penicillin (Sigma-Aldrich). Dose-response curves with compounds were prepared in 100% DMSO and further diluted 100-fold in culture medium. Compound solutions were added to the plate containing cells (final DMSO concentration of 0.1%) and incubated for 24 h at 37° C. and 5% CO2. Luciferase detection reagent was added to each well, and relative light units (RLUs) were quantified from each assay well using a plate reading luminometer.
Values of average RLU±S.D. were computed for all treatment sets, followed by the calculations of percent-reduction of RORT activity in response to respective test compound. The following formula was used: activity=100*[1−[[…]] where the theoretical minimum reduction (0% reduction). […] These calculations were performed in excel-fit software using X-204 model curve.
A general note: In a reporter assay the amount or activity of a reporter protein is the signal.

Where [1] appears, read: HEK293 cells, luciferase reporter, 24 h incubation, absolute IC50, read-out: IC50.

Molecules are shown by their SMILES. Where two headings read alike, the source gives them in different places. Some results are limits rather than exact numbers.

In general, IC50 refers to the concentration that inhibits the measured activity by half. Consider `CCN(Cc1ccc(C(F)(F)F)cc1F)c1ncnc2c1ccn2C[C@@]1(O)CCN(CC(N)=O)C[C@@H]1O` (racemic) [Example L5-3-1, rac-2-((3R,4R)-4-((4-(ethyl(2-fluoro-4-(trifluoromethyl)benzyl)amino)-7H-pyrrolo[2,3-d]pyrimidin-7-yl)methyl)-3,4-dihydroxypiperidin-1-yl)acetamide], for which the IC50 under setting [1] turned out to be 63 nM.
`NC(=O)CN1CC[C@@H](Cn2cc(F)c3c(N(Cc4cnc(C(F)(F)F)nc4)C4CC4)ncnc32)[C@H](O)C1` (racemic) [Example P6-17, rac-2-((3R,4R)-4-((4-(cyclopropyl((2-(trifluoromethyl)pyrimidin-5-yl)methyl)amino)-5-fluoro-7H-pyrrolo[2,3-d]pyrimidin-7-yl)methyl)-3-hydroxypiperidin-1-yl)acetamide]: under setting [1], the IC50 was 43 nM.
As to `NC(=O)CN1CC[C@@H](Cn2cnc3c(N(Cc4cccc(C(F)(F)F)c4)C4CC4)ncnc32)[C@H](O)C1` (racemic) [Example P6-20, rac-2-((3R,4R)-4-((6-(cyclopropyl(3-(trifluoromethyl)benzyl)amino)-9H-purin-9-yl)methyl)-3-hydroxypiperidin-1-yl)acetamide], the IC50 under setting [1] is over 1000 nM.
On the same count and under the same terms, to `CC(C)N(Cc1ccc(C(F)(F)F)cc1)c1ncnc2c1ncn2C[C@@H]1CCN(CC(N)=O)C[C@H]1O` (racemic) [Example P6-22, rac-2-((3R,4R)-3-hydroxy-4-((6-(isopropyl(4-(trifluoromethyl)benzyl)amino)-9H-purin-9-yl)methyl)piperidin-1-yl)acetamide] belongs 77 nM.
Turning to `CCN(Cc1ccc(C#N)cc1)c1ncnc2c1ccn2C[C@@H]1CCN(CC(N)=O)C[C@H]1O` (relative stereo) [P6-29″, rel-2-((3R,4R)-4-((4-((4-cyanobenzyl)(ethyl)amino)-7H-pyrrolo[2,3-d]pyrimidin-7-yl)methyl)-3-hydroxypiperidin-1-yl)acetamide], under setting [1], the IC50 is over 1000 nM.
On the same count and under the same terms, to `CCN(Cc1ccc(-c2cnn(C)c2)cc1)c1ncnc2c1ccn2C[C@@H]1CCN(CC(N)=O)C[C@H]1O` (relative stereo) [P6-34″, rel-2-((3R,4R)-4-((4-(ethyl(4-(1-methyl-1H-pyrazol-4-yl)benzyl)amino)-7H-pyrrolo[2,3-d]pyrimidin-7-yl)methyl)-3-hydroxypiperidin-1-yl)acetamide] belongs 12 nM; to `CCN(Cc1ccc(-c2cnn(C)c2)cc1F)c1ncnc2c1ccn2C[C@@H]1CCN(CC(N)=O)C[C@H]1O` (relative stereo) [P6-35″, rel-2-((3R,4R)-4-((4-(ethyl(2-fluoro-4-(1-methyl-1H-pyrazol-4-yl)benzyl)amino)-7H-pyrrolo[2,3-d]pyrimidin-7-yl)methyl)-3-hydroxypiperidin-1-yl)acetamide], 24 nM; to `CCN(Cc1ccc(-n2cccn2)cc1F)c1ncnc2c1ccn2C[C@@H]1CCN(CC(N)=O)C[C@H]1O` (relative stereo) [P6-36″, rel-2-((3R,4R)-4-((4-(ethyl(2-fluoro-4-(1H-pyrazol-1-yl)benzyl)amino)-7H-pyrrolo[2,3-d]pyrimidin-7-yl)methyl)-3-hydroxypiperidin-1-yl)acetamide], 14 nM.
The same measure, in the same setting: the same measure for `CCN(Cc1ccc(-n2cccn2)cc1F)c1ncnc2c1ccn2C[C@@]1(O)CCN(CC(N)=O)C[C@@H]1O` (relative stereo) [R5-5″, Rel-2-((3R,4R)-4-((4-(ethyl(2-fluoro-4-(1H-pyrazol-1-yl)benzyl)amino)-7H-pyrrolo[2,3-d]pyrimidin-7-yl)methyl)-3,4-dihydroxypiperidin-1-yl)acetamide]: 15 nM; for `NC(=O)CN1CCC(Cn2ccc3c(N(Cc4ccc(C(F)(F)F)cc4)C4CC4)ncnc32)C(F)(F)C1` (single isomer, unassigned) [Example K8-1-1]: 9 nM; for `NC(=O)CN1CCC(Cn2ccc3c(N(Cc4ccc(C(F)(F)F)cc4)C4CC4)ncnc32)C(F)(F)C1` (single isomer, unassigned) [Example K8-1-2]: 4 nM.
Turning to `NC(=O)CN1CC[C@@H](Cn2ccc3c(N(Cc4ccc(C(F)(F)F)cc4)C4CC4)ncnc32)[C@H](F)C1` (single isomer, unassigned) [Example K8-2-1], under setting [1], the IC50 was 6.1 nM.
`NC(=O)CN1CC[C@@H](Cn2ccc3c(N(Cc4ccc(C(F)(F)F)cc4)C4CC4)ncnc32)[C@H](F)C1` (single isomer, unassigned) [Example K8-2-2]: the 50% inhibitory concentration (IC50) under setting [1] worked out at 3.1 nM.
As for `NC(=O)CN1CC[C@@H](Cn2ccc3c(N(Cc4ccc(C(F)(F)F)cn4)C4CC4)ncnc32)[C@H](F)C1` (single isomer, unassigned) [Example K8-3-1], the IC50 under setting [1] stood at 76 nM.
Consider `NC(=O)CN1CC[C@@H](Cn2ccc3c(N(Cc4ccc(C(F)(F)F)cn4)C4CC4)ncnc32)[C@H](F)C1` (single isomer, unassigned) [Example K8-3-2], for which the IC50 under setting [1] was 22 nM.
Still for that read-out and setting: to `NC(=O)CN1CC[C@@H](Cn2ccc3c(N4CCOC[C@@H]4c4ccc(C(F)(F)F)cc4)ncnc32)[C@H](O)C1` (single isomer, unassigned) [Example P6-01-1, 2-((3R*,4R*)-3-hydroxy-4-((4-((S)-3-(4-(trifluoromethyl)phenyl)morpholino)-7H-pyrrolo[2,3-d]pyrimidin-7-yl)methyl)piperidin-1-yl)acetamide] belongs 12 nM; to `NC(=O)CN1CC[C@@H](Cn2ccc3c(N4CCOC[C@@H]4c4ccc(C(F)(F)F)cc4)ncnc32)[C@H](O)C1` (single isomer, unassigned) [Example P6-01-2, 2-((3R*,4R*)-3-hydroxy-4-((4-((S)-3-(4-(trifluoromethyl)phenyl)morpholino)-7H-pyrrolo[2,3-d]pyrimidin-7-yl)methyl)piperidin-1-yl)acetamide], 25 nM; to `NC(=O)CN1CC[C@@H](Cn2ccc3c(N4CCOC[C@@H]4c4cccc(C(F)(F)F)c4)ncnc32)[C@H](O)C1` (single isomer, unassigned) [Example P6-03-1], 13 nM.
Still for that read-out and setting: to `NC(=O)CN1CC[C@@H](Cn2ccc3c(N4CCOC[C@@H]4c4cccc(C(F)(F)F)c4)ncnc32)[C@H](O)C1` (single isomer, unassigned) [Example P6-03-2] belongs 26 nM; to `NC(=O)CN1CC[C@@H](Cn2ccc3c(N4CCOC[C@H]4c4cccc(C(F)(F)F)c4)ncnc32)[C@H](O)C1` (single isomer, unassigned) [Example P6-04-1], 47 nM; to `NC(=O)CN1CC[C@@H](Cn2cnc3c(N(Cc4ccc(C(F)(F)F)cc4)C4CC4)ncnc32)[C@H](O)C1` (single isomer, unassigned) [Example P6-26-1], 65 nM.
For `NC(=O)CN1CC[C@@H](Cn2ccc3c(N4CCOC[C@@H]4c4ccc(C(F)(F)F)cn4)ncnc32)[C@H](F)C1` (single isomer, unassigned) [Example Q4-1-1, 2-((3R*,4R*)-3-fluoro-4-((4-((S)-3-(5-(trifluoromethyl)pyridin-2-yl)morpholino)-7H-pyrrolo[2,3-d]pyrimidin-7-yl)methyl)piperidin-1-yl)acetamide], the IC50 by setting is: under setting [1], 170 nM; (stated as a bound only (Tables 5 a, 6, 7), read-out: Gal4 assay IC50) under 500 nM.
As for `NC(=O)CN1CC[C@@H](Cn2ccc3c(N4CCOC[C@@H]4c4ccc(C(F)(F)F)cn4)ncnc32)[C@H](F)C1` (single isomer, unassigned) [Example Q4-1-2, 2-((3R*,4R*)-3-fluoro-4-((4-((S)-3-(5-(trifluoromethyl)pyridin-2-yl)morpholino)-7H-pyrrolo[2,3-d]pyrimidin-7-yl)methyl)piperidin-1-yl)acetamide], under setting [1], the IC50 is 250 nM.
Take `NC(=O)CN1CCC(O)(Cn2cnc3c(N(Cc4ccc(C(F)(F)F)cc4)C4CC4)ncnc32)CC1` [Example 3P6-3, 2-(4-((6-(cyclopropyl(4-(trifluoromethyl)benzyl)amino)-9H-purin-9-yl)methyl)-4-hydroxypiperidin-1-yl)acetamide]: the IC50 under setting [1] was 72 nM.
As to `N#Cc1cn(CC2(O)CCN(CC(N)=O)CC2)c2ncnc(N(Cc3ccc(C(F)(F)F)cc3)C3CC3)c12` [Example 3P6-4, 2-(4-((5-cyano-4-(cyclopropyl(4-(trifluoromethyl)benzyl)amino)-7H-pyrrolo[2,3-d]pyrimidin-7-yl)methyl)-4-hydroxypiperidin-1-yl)acetamide], under setting [1], the half-inhibitory concentration (IC50) is 297 nM.
Turning to `CN(Cc1ccc(C(F)(F)F)cc1)c1ncnc2c1c(F)cn2CC1(O)CCN(CC(N)=O)CC1` [Example 3P6-5, 2-(4-((5-fluoro-4-(methyl(4-(trifluoromethyl)benzyl)amino)-7H-pyrrolo[2,3-d]pyrimidin-7-yl)methyl)-4-hydroxypiperidin-1-yl)acetamide], the IC50 under setting [1] is 87 nM.

The values are drawn from US11780843B2, “Compounds active towards nuclear receptors” (NUEVOLUTION A/S, priority 2020, dated 2023).
